What was measured:
[1] = cited from earlier work; for hepatic by-pass after percutaneous administration: alcoholic solution
progesterone receptor = conditions: common knowledge; cited from earlier work
progesterone receptors = test: tracer doses of tritiated progesterone administered percutaneously under the same conditions; assay type: in vivo
Experimental: In another experiment, tracer doses of tritiated progesterone were administered under the same conditions as 4-hydroxytamoxifen.

[2] = passage through the liver; cited from earlier work
solubility in alcohol = assay type: physicochemical
From the text: (§1) The daily doses of product to be administered are easy to calculate in terms of the absorption coefficients of the drugs and the doses which it is desired to obtain for 4-hydroxytamoxifen and progesterone at the level of their receptor molecules.

cutaneous absorption = assay type: in vivo; conditions: skin, topical or ocular; percutaneous; read-out: coefficient of cutaneous absorption
From the text: as §1

[3] = tested on: receptor molecules in cancerous mammary tumors; test: percutaneous application on the skin overlying cancerous mammary tumors; assay type: in vivo
[4] = tamoxifen per os; 4-hydroxytamoxifen orally or parenterally, other than percutaneously; cited from earlier work
[5] = tested on: protein structures corresponding to hormonal receptors; test: tracer doses of tritiated 4-hydroxytamoxifen applied in alcoholic solution 24 hours before excision of cancerous breasts; assay type: in vivo
[6] = as above; assay type: in vivo; conditions: human, breast tissue, topical or ocular, read-out: portion of the radioactivity metabolized to unidentified products
[7] = radioactive 4-hydroxytamoxifen applied on the skin of a healthy subject, urinary radioactivity in 15 days and circulating blood; assay type: in vivo
From the text: A small portion of the radioactivity is metabolized to unidentified products (3%). In parallel, this same product in radioactive form was applied on the skin of a healthy subject, and a calculation was made of the radioactivity appearing in the urine in 15 days following administration of the product. […] It is only as a secondary effect that it reaches the liver, where it is inactivated.

C[C@]12CC[C@H]3[C@@H](CCC4=CC(=O)CC[C@@]43C)[C@@H]1CC[C@@H]2O [testosterone]
hepatic by-pass after percutaneous administration [1]: hepatic by-passes thus produced were demonstrated

CC(=O)[C@H]1CC[C@H]2[C@@H]3CCC4=CC(=O)CC[C@]4(C)[C@H]3CC[C@]12C [progesterone]
action on the progesterone receptor (progesterone receptor): binds to is own receptor, which it activates
radioactivity in the blood (progesterone receptors; blood): No radioactivity circulates in the blood
uptake by specific receptors and inactivation (progesterone receptors; conclusion): taken up by specific receptors and that it is inactivated for the most part in situ
form found, binding to the progesterone receptors and metabolism (progesterone receptors; tritiated, percutaneous, excised cancerous breast): appeared in its original form, partly bound to the progesterone receptors and partly metabolized
metabolites in the urine (progesterone receptors; urine): various metabolites of progesterone appeared in the 56 hours following the experiment
topical retention ([1]; alcoholic solution or 60% strength aqueous alcoholic gel): 48 h
hepatic by-pass after percutaneous administration [1]: hepatic by-passes thus produced were demonstrated
metabolism/degradation after oral administration [2]: completely destroyed during its passage through the liver
solubility in alcohol (solubility in alcohol): soluble in alcohol
Fa (cutaneous absorption): 10%

CC/C(=C(\c1ccccc1)c1ccc(OCCN(C)C)cc1)c1ccccc1 [tamoxifen, 1-[4-(2-N-dimethylaminoethoxy)phenyl]-1,2diphenylbut-1-(Z)-ene]
metabolism/degradation after oral administration [2]: converted during its passage through the liver to numerous metabolites
activation to the 4-hydroxy derivative by the percutaneous route ([3]; percutaneous, breast): cannot be activated to its 4-hydroxy derivative by the percutaneous route
harmful side effects: stimulation of the ovaries [4]: a paradoxical stimulation of the ovaries

CC/C(=C(\c1ccc(O)cc1)c1ccc(OCCN(C)C)cc1)c1ccccc1 [4-hydroxytamoxifen, 1-[4-(2-N-dimethylaminoethoxy)phenyl]-1-(4-hydroxyphenyl)-2-phenylbut-1-(Z)-ene]
form found at the hormonal receptors [5]: appeared in its original form at the level of the protein structures corresponding to hormonal receptors
metabolised at 24 h [6]: 3%
product in circulating blood ([7]; circulating blood): only traces of the product are detectable
destruction of the product from urinary elimination ([7]; healthy subject, urine, 15 days): weak and gradual destruction of the product
metabolism/degradation after oral administration [2]: more rapidly degraded than tamoxifen
passage through the cutaneous barrier and uptake on receptor molecules in tumors ([3]; 60% strength alcoholic solution): capable of passing through the cutaneous barrier and being taken up on the receptor molecules in these tumors
solubility in alcohol (solubility in alcohol): soluble in alcohol
harmful side effects: stimulation of the ovaries [4]: detrimental paradoxical stimulation of the ovaries
Fa (cutaneous absorption): ~1%
